Assay results from patent US4929601A, “Tripeptides useful as immunostimulants as well as in the prevention of metastases” (Ellem Industria Farmaceutica, S.p.A., priority 1987, dated 1990).

Experiments:
[1] = test system: PHA-stimulated human T lymphocytes; test: RNA synthesis in PHA-stimulated human T lymphocytes in vitro (3H-uridine); type: cell-based; conditions: for RNA synthesis, 3H-uridine c.p.m. (mean): control 3835
Description: Human T lymphocytes, incubated in vitro for 24 hours in presence of 0.5% phytohemagglutinin (PHA) and different concentrations of the tripeptides under examination, have been analyzed for RNA synthesis (cell activation) by means of 3H-uridine labelling.

[2] = test system: PHA-stimulated human T lymphocytes; test: DNA synthesis in PHA-stimulated human T lymphocytes in vitro (3H-thymidine); type: cell-based; conditions: for DNA synthesis, 3H-thymidine c.p.m. (mean): control 22642
Description: Human T lymphocytes, incubated in vitro for 72 hours in presence of 0.5% PHA and different concentrations of the tripeptides under examination, have been analyzed for DNA synthesis (cell proliferation) by means of 3H-thymidine labelling.

N=C(N)NCCC[C@H](N)C(=O)NCC(=O)N[C@H](CC(=O)O)C(=O)O [ARG--GLY--D--ASP, L-Arginyl-glycyl-D-Aspartic acid]
PHA-induced human T lymphocyte activation (RNA synthesis) ([1]; 24 hours, 0.5% PHA): able to increase
RNA synthesis Δ % ([1]; peptide 0.0001 mcg/ml): -8%
RNA synthesis, 3H-uridine c.p.m. (mean) ([1]; peptide 0.0001 mcg/ml, 24 hours, 0.5% PHA): 3517 c.p.m.
RNA synthesis Δ % ([1]; peptide 0.001 mcg/ml): +8%
RNA synthesis, 3H-uridine c.p.m. (mean) ([1]; peptide 0.001 mcg/ml, 24 hours, 0.5% PHA): 4129 c.p.m.
RNA synthesis Δ % ([1]; peptide 0.01 mcg/ml): +12%
RNA synthesis, 3H-uridine c.p.m. (mean) ([1]; peptide 0.01 mcg/ml, 24 hours, 0.5% PHA): 4283 c.p.m.
RNA synthesis Δ % ([1]; peptide 0.1 mcg/ml): +25%
RNA synthesis, 3H-uridine c.p.m. (mean) ([1]; peptide 0.1 mcg/ml, 24 hours, 0.5% PHA): 4777 c.p.m.
RNA synthesis Δ % ([1]; peptide 1 mcg/ml): +22%
RNA synthesis, 3H-uridine c.p.m. (mean) ([1]; peptide 1 mcg/ml, 24 hours, 0.5% PHA): 4682 c.p.m.
RNA synthesis Δ % ([1]; peptide 10 mcg/ml): +13%
RNA synthesis, 3H-uridine c.p.m. (mean) ([1]; peptide 10 mcg/ml, 24 hours, 0.5% PHA): 4346 c.p.m.
PHA-induced human T lymphocyte proliferation (DNA synthesis) ([2]; 72 hours, 0.5% PHA): able to increase
DNA synthesis Δ % ([2]; peptide 0.0001 mcg/ml): -3%
DNA synthesis, 3H-thymidine c.p.m. (mean) ([2]; peptide 0.0001 mcg/ml, 72 hours, 0.5% PHA): 21898 c.p.m.
DNA synthesis Δ % ([2]; peptide 0.001 mcg/ml): +2%
DNA synthesis, 3H-thymidine c.p.m. (mean) ([2]; peptide 0.001 mcg/ml, 72 hours, 0.5% PHA): 23029 c.p.m.
DNA synthesis Δ % ([2]; peptide 0.01 mcg/ml): +8%
DNA synthesis, 3H-thymidine c.p.m. (mean) ([2]; peptide 0.01 mcg/ml, 72 hours, 0.5% PHA): 24551 c.p.m.
DNA synthesis Δ % ([2]; peptide 0.1 mcg/ml): +15%
DNA synthesis, 3H-thymidine c.p.m. (mean) ([2]; peptide 0.1 mcg/ml, 72 hours, 0.5% PHA): 26090 c.p.m.
DNA synthesis Δ % ([2]; peptide 1 mcg/ml): +16%
DNA synthesis, 3H-thymidine c.p.m. (mean) ([2]; peptide 1 mcg/ml, 72 hours, 0.5% PHA): 26170 c.p.m.
DNA synthesis Δ % ([2]; peptide 10 mcg/ml): +9%
DNA synthesis, 3H-thymidine c.p.m. (mean) ([2]; peptide 10 mcg/ml, 72 hours, 0.5% PHA): 24570 c.p.m.
